Columns and labels:
[1] = molecular target: T1, human VEGF-R2 receptor (KDR) (Homo sapiens, UniProt P35968); test: Inhibition of VEGF-induced VEGF-R2 (KDR) autophosphorylation in transfected CHO cells, sandwich ELISA; assay type: cell-based; details: % inhibition at 10 μM
T1 construct: expressed in transfected cells
Procedure: The inhibition of VEGF-induced receptor autophosphorylation can be confirmed with a further in vitro experiments in cells such as transfected CHO cells, which permanently express human VEGF-R2 receptor (KDR), are seeded in complete culture medium (with 10% fetal calf serum=FCS) in 6-well cell-culture plates and incubated at 37° C. under 5% CO2 until they show about 80% confluency. The compounds to be tested are then diluted in culture medium (without FCS, with 0.1% bovine serum albumin) and added to the cells. (Controls comprise medium without test compounds). After two hours of incubation at 37° C., recombinant VEGF is added; the final VEGF concentration is 20 ng/ml. After a further five minutes incubation at 37° C., the cells are washed twice with ice-cold PBS (phosphate-buffered saline) and immediately lysed in 100 μl lysis buffer per well. The lysates are then centrifuged to remove the cell nuclei, and the protein concentrations of the supernatants are determined using a commercial protein assay (BIORAD). The lysates can then either be immediately used or, if necessary, stored at −20° C.
The plates are then washed and the remaining free protein-binding sites are saturated with 3% TopBlock® (Juro, Cat. # TB232010) in phosphate buffered saline with Tween 20® (polyoxyethylen(20)sorbitane monolaurate, ICI/Uniquema) (PBST). The cell lysates (20 μg protein per well) are then incubated in these plates overnight at 4° C. together with an antiphosphotyrosine antibody coupled with alkaline phosphatase (PY20:AP from Zymed). […] The luminescence is measured in a Packard Top Count Microplate Scintillation Counter. The difference between the signal of the positive control (stimulated with VEGF) and that of the negative control (not stimulated with VEGF) corresponds to VEGF-induced VEGF-R2 phosphorylation (=100%). The activity of the tested substances is calculated as percent inhibition of VEGF-induced VEGF-R2 phosphorylation, wherein the concentration of substance that induces half the maximum inhibition is defined as the IC50 (inhibitory dose for 50% inhibition). […]

[2] = molecular target: T2, c-Abl kinase (His-tagged kinase domain of c-Abl) (Homo sapiens, UniProt P00519); test: c-Abl protein-tyrosine kinase in vitro enzyme filter binding assay; assay type: biochemical; details: % inhibition at 10 μM
T2 construct: The His-tagged kinase domain of c-Abl is cloned and expressed in the baculovirus/Sf9 system; His tag; made in house; host or cells: Sf9 insect cells (baculovirus)
T2 sequence (P00519 242-493 limits assumed): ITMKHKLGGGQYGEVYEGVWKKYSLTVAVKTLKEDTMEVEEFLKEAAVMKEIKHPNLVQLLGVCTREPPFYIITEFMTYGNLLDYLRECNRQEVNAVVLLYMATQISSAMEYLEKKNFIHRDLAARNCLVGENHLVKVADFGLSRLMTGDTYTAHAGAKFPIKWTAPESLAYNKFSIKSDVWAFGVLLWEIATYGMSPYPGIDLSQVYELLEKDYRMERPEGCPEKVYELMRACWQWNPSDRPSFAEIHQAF
Procedure: An in vitro enzyme assay is performed in 96-well plates as a filter binding assay as described by Geissler et al. in Cancer Res. 1992; 52:4492-4498, with the following modifications. The His-tagged kinase domain of c-Abl is cloned and expressed in the baculovirus/Sf9 system as described by Bhat et al. in J. Biol. Chem. 1997; 272:16170-16175. A protein of 37 kD (c-Abl kinase) is purified by a two-step procedure over a Cobalt metal chelate column followed by an anion exchange column with a yield of 1-2 mg/L of Sf9 cells (Bhat et al., reference cited). The purity of the c-Abl kinase is >90% as judged by SDS-PAGE after Coomassie blue staining. The assay contains (total volume of 30 μL): c-Abl kinase (50 ng), 20 mM Tris·HCl, pH 7.5, 10 mM MgCl2, 10 μM Na3VO4, 1 mM DTT and 0.06 μCi/assay [γ^33 P]-ATP (5 μM ATP) using 30 μg/mL poly-Ala,Glu,Lys,Tyr-6:2:5:1 (Poly-AEKY, Sigma P1152) in the presence of 1% DMSO. Reactions are terminated by adding 10 μL of 250 mM EDTA and 30 μL of the reaction mixture is transferred onto Immobilon-PVDF membrane (Millipore, Bedford, Mass., USA) previously soaked for 5 min with methanol, rinsed with water, then soaked for 5 min with 0.5% H3PO4 and mounted on vacuum manifold with disconnected vacuum source. After spotting all samples, vacuum is connected and each well rinsed with 200 μL 0.5% H3PO4. Membranes are removed and washed on a shaker with 0.5% H3PO4 (4 times) and once with ethanol. Membranes are counted after drying at ambient temperature, mounting in Packard TopCount 96-well frame, and addition of 10 μL/well of Microscint™ (Packard).
Enzymatic (c-Abl, KDR, Flt3) data are given on Table 17 (% inhibition at 10 μM). (Measurements are made as described above in the general description).

T1 sequence (P35968 20-1356): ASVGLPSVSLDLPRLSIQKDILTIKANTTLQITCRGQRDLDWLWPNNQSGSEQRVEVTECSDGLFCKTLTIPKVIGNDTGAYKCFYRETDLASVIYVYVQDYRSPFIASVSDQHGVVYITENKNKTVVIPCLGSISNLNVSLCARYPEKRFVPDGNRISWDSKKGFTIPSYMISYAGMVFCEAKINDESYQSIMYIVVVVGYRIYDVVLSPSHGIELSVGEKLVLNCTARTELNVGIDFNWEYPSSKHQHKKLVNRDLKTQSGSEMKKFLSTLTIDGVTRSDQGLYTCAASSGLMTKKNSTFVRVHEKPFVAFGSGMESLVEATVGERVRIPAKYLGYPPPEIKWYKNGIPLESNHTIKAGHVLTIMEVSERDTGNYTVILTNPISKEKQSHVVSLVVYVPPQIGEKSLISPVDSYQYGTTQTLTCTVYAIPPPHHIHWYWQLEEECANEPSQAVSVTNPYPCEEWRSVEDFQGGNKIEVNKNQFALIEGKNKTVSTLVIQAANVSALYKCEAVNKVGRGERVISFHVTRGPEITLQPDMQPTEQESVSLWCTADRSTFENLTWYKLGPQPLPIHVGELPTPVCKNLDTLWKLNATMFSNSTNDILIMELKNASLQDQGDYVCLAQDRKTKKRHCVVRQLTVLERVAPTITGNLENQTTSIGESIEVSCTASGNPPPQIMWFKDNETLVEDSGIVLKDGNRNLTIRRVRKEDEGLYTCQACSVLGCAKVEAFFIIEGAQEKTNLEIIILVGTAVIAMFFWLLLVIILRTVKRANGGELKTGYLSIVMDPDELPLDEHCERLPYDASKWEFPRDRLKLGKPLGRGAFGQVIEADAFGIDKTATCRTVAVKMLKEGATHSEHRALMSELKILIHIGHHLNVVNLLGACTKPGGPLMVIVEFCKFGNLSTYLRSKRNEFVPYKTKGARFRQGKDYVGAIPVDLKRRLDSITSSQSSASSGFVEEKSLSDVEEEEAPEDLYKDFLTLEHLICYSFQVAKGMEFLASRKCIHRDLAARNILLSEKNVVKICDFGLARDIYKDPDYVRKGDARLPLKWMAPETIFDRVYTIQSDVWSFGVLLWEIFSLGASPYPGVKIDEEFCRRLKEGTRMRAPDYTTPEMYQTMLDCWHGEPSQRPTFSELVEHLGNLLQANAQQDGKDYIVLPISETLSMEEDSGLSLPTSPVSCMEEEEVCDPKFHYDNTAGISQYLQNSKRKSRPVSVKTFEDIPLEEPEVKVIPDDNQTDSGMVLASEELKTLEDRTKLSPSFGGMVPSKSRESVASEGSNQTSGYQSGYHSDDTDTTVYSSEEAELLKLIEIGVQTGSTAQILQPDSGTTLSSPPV

KDR trans (% at 10 μM) [1] | c-Abl (% at 10 μM) [2] | melting point | Structure (SMILES)
100% | 62% | 166.5 to 168 °C | CCc1ccc(NC(=O)Nc2ccc(Oc3ccncc3)cc2)cc1 [Example 1, N-(4-pyridin-4-yl-oxy-phenyl)-N′-(4-ethyl-phenyl)-urea]
99% | 84% |  | O=C(Nc1ccc(Oc2ccncc2)cc1)Nc1cccc(C(F)(F)F)c1 [Example 2]
25% | 58% |  | CCCc1ccc(NC(=O)Nc2ccc(Oc3ccncc3)cc2)cc1 [Example 3]
 |  | 142 °C (dec.) | O=C(Nc1ccc(Oc2cc(Nc3ccc(O)cc3)ncn2)cc1)Nc1cccc(C(F)(F)F)c1 [Example 22, N-(4-(4-(4-hydroxyphenylamino)-pyrimidin-6-yl)-oxyphenyl)-N′-(3-trifluoromethylphenyl)-urea]
 |  | 162.5 to 164.5 °C | COc1cc(NC(=O)Nc2ccc(Oc3ccncc3)cc2)cc(C(F)(F)F)c1 [Example 37, 1-(3-Methoxy-5-trifluoromethyl-phenyl)-3-[4-(pyridin-4-yloxy)-phenyl]-urea]
 |  | 60 °C (dec.) | CCN(CC)c1ccc(NC(=O)Nc2ccc(Oc3ccncc3)cc2)cc1C(F)(F)F [Example 39]
 |  | 149 °C (dec.) | Cc1ccc(NC(=O)Nc2ccc(Oc3ccncc3)cc2)cc1C(F)(F)F [Example 43, 1-(4-Methyl-3-trifluoromethyl-phenyl)-3-[4-(pyridin-4-yloxy)-phenyl]-urea]
 |  | 202 to 203 °C (dec.) | CNc1cc(Oc2ccc(NC(=O)Nc3ccc(C)c(C(F)(F)F)c3)cc2)ncn1 [Example 67]
 |  | 183 to 184.5 °C | Cc1ccc(NC(=O)Nc2ccc(Oc3cc(Cl)ncn3)cc2)cc1C(F)(F)F [Example 76, 1-[4-(6-Chloro-pyrimidin-4-yloxy)-phenyl]-3-(4-methyl-3-trifluoromethyl-phenyl)-urea]
 |  | 217 to 219 °C | Cc1ccc(NC(=O)Nc2ccc(Oc3cc(Cl)ncn3)cc2)cc1 [Example 97, 1-[4-(6-Chloro-pyrimidin-4-yloxy)-phenyl]-3-p-tolyl-urea]
 |  | 160 to 162 °C | CCc1cc(Oc2ccc(NC(=O)Nc3ccc(C)cc3)cc2)ncn1 [Example 99, 1-[4-(6-Ethyl-pyrimidin-4-yloxy)phenyl]-3-p-tolyl-urea]
 |  | 168 to 169 °C | CCN1CCN(Cc2cc(NC(=O)Nc3ccc(Oc4cc(Cl)ncn4)cc3)cc(C(F)(F)F)c2)CC1 [Example 134, N-(4-(6-Chloropyrimidin-4-yl-oxy)-phenyl)-N′-{5-trifluoromethyl-3-[(4-ethylpiperazin-1-ylmethyl)]-phenyl}-urea]
 |  | 154 °C | CN(C)Cc1cc(NC(=O)Nc2ccc(Oc3cc(Cl)ncn3)cc2)cc(C(F)(F)F)c1 [Example 135, N-(4-(6-Chloropyrimidin-4-yl-oxy)-phenyl)-N′-[5-trifluoromethyl-3-(dimethylamino-methyl)-phenyl]-urea]
 |  | 181 °C | O=C(Nc1cccc(C(F)(F)F)c1)N1CCc2cc(Oc3cc(Cl)ncn3)ccc21 [Example 163, 5-(6-Chloro-pyrimidin-4-yloxy)-2,3-dihydro-indole-1-carboxylic acid (3-trifluoromethyl-phenyl)-amide]

Source: patent US7652022B2, “Diaryl urea derivatives useful for the treatment of protein kinase dependent diseases” (Novartis AG, priority 2002, dated 2010)
